Test results from patent US6372449B1, “Opthalmic methods and uses” (priority 1999, dated 2002).

Legend:
ocular structures [1] = details: prior-art dyes, general statement; cited from earlier work
[2] = tested on: epiretinal and internal limiting membrane of the retina; experiment: Staining of the inner limiting membrane with trypan blue solution during pars plana vitrectomy; type: in vivo, patient; details: 0.1% w/w in physiological saline, instilled, left for 30 seconds, aspirated and irrigated; Patients A and B
Source text: In respect of retinal surgery for the removal of aberrant membranes or for the peeling of epiretinal and internal limiting membranes of the retina, the vitreous gel of the eye is removed by a technique known as pars plana vitrectomy, with stripping of the outer (cortical) vitreous. In place of the vitreous gel, infusion fluid is introduced into the eye via an infusion port. The inner limiting membrane may then be stained with trypan blue solution (for example 0.1% w/w) instilled with a fine silicone-tipped extrusion needle, left for 30 seconds to stain the membrane, aspirated, followed by irrigation of the area with balanced salt (physiological) solution. Peeling of the membrane proceeds and is greatly facilitated because of improved visualization of the extent of the membrane. The procedure is then completed in standard fashion with fluid-gas exchange.
Patient A required peeling of epiretinal and internal limiting membrane of the retina as part of the surgical management of premacular fibrosis and macular hole conditions.
Patient B is a diabetic suffering from severe diabetic retinopathy, with proliferative vitreo retinopathy.
A 0.1% w/w solution of trypan blue in physiological saline is prepared.
In each patient the vitreous gel of the eye is removed by pars plana vitrectomy an established procedure in the art, which involves stripping of the outer (cortical) vitreous. […]

trabecular meshwork = experiment: Marking of the trabecular meshwork with trypan blue before laser treatment in glaucoma; type: in vivo; details: Patient C
Source text: Eye pressure is regulated in part by flow of ocular fluid (aqueous humour) through a biological valve, known as the trabecular meshwork. In glaucoma, a pathological condition where the eye pressure is raised, the eye pressure may be lowered by application of a laser energy source to the trabecular meshwork. In the prior art the success of this technique generally depends upon the presence of sufficient natural pigmentation of the trabecular meshwork which will absorb the laser energy. Using trypan blue to mark the trabecular meshwork improves identification of this structure, and the uptake of laser energy. A trypan blue solution is instilled into the eye in the location of the trabecular meshwork, and after a short time period such as from 10 seconds to one minute, the trypan blue solution is removed and the area generally irrigated to remove excess trypan blue. The now marked trabecular meshwork can be readily visually distinguished, and laser application can take place. Other ocular structures may be marked in the same manner so as to enable identification and if necessary surgical or other treatment.
Patient C is a glaucoma sufferer who has elevated eye pressure. 0.1% trypan blue is instilled into the eye of patient C through a cannular, introducing the trypan blue solution in the area with trabecular meshwork.

ocular structures [3] = experiment: Toxicity and permanence of staining of dyes used in the eye; details: trypan blue, general statement
Source text: A number of dyes have been used in the eye to identify vital structures, examples of dyes used include indocyanin green, rose bengal, gentian violet and methylene blue.

SMILES: CN(C)c1ccc(C(=C2C=CC(=[N+](C)C)C=C2)c2ccc(N(C)C)cc2)cc1 [gentian violet]
- toxicity to ocular structures (ocular structures [1]): toxic to ocular structures

SMILES: CC1(C)C(/C=C/C=C/C=C/C=C2\N(CCCCS(=O)(=O)[O-])c3ccc4ccccc4c3C2(C)C)=[N+](CCCCS(=O)(=O)[O-])c2ccc3ccccc3c21.[Na+] [indocyanin green]
- toxicity to ocular structures (ocular structures [1]): toxic to ocular structures

SMILES: CN(C)c1ccc2nc3ccc(=[N+](C)C)cc-3sc2c1 [methylene blue]
- toxicity to ocular structures (ocular structures [1]): toxic to ocular structures

SMILES: O=C([O-])c1c(Cl)c(Cl)c(Cl)c(Cl)c1-c1c2cc(I)c(=O)c(I)c-2oc2c(I)c([O-])c(I)cc12.[Na+].[Na+] [rose bengal]
- toxicity to ocular structures (ocular structures [1]): toxic to ocular structures

SMILES: Cc1cc(-c2ccc(/N=N/c3c(S(=O)(=O)O)cc4cc(S(=O)(=O)O)cc(N)c4c3O)c(C)c2)ccc1/N=N/c1c(S(=O)(=O)O)cc2cc(S(=O)(=O)O)cc(N)c2c1O [trypan blue]
- visual identification of membranes after staining [2]: readily identified
- visualization of the trabecular meshwork (trabecular meshwork; 0.1% trypan blue instilled through a cannular, glaucoma): visualized by simple visual identification
- eye pressure after laser treatment (trabecular meshwork; 0.1% trypan blue marking followed by laser light, elevated eye pressure): Successful lowering of eye pressure
- uptake of laser energy (trabecular meshwork; 0.1% trypan blue, after irrigation, area subject to laser light): improving uptake of laser energy
- reversibility of staining of eye structures (ocular structures [3]): does not irreversibly stain eye structures
- toxicity in the eye (ocular structures [3]): non-toxic
